In patent US20070004652A1, “Treatment of occlusive thrombosis” (Mars, Incorporated, priority 2005, published 2007):
Entries after “also recorded” stand apart in the source; their conditions may differ.

Legend:
human endothelial cells = experiment: Genomic investigation (Affymetrix microarray, Taqman validation) of gene expression of human endothelial cells; type: cell-based; conditions: human endothelial cells in vitro and human plasma
From the text: We have employed a genomic approach to comprehensively investigate the effects of (−)-epicatechin (including a mixture of (−)-epicatechin metabolites), procyanidin dimer B1, and procyanidin dimer A2 on the gene expression of human endothelial cells in vitro. Following the completion of an extensive evaluation utilizing an Affymetrix Oligonucleotide Microarray Gene Expression Analysis System, we have subsequently validated our findings using Taqman® Gene Expression Assays, and confirmed the ensuing data by directly assessing amounts or activities of the target proteins in cultured human endothelial cells and human plasma, respectively.

plasma uPA = experiment: Plasma uPA activity after ingestion by human volunteers; type: in vivo; conditions: raw data
Description: (§1) The test compound was administered to human volunteers in accordance with IRB-approved protocols and as detailed in the previous section of this report. The activity of tPA, uPA, and PAI in plasma was measured using an ELISA-based assay [Innovative Research Inc., Southfield, Mich., USA] in accordance with the manufacturer's instructions.

plasma tPA = experiment: Plasma tPA activity after ingestion by human volunteers; type: in vivo; conditions: for plasma tPA activity, time course: non-transformed (raw) data
Description: as §1

plasma PAI = experiment: Plasma PAI activity after ingestion by human volunteers; type: in vivo
Description: as §1

plasma tPAtotal = experiment: Plasma tPAtotal (free and bound tPA) after ingestion by human volunteers; type: in vivo; conditions: raw data, One Way ANOVA P=0.769
Description: as §1
In addition to measurements of plasma tPA activity, we determined the amount of tPAtotal in plasma (tPAtotal=free and bound tPA).

[1] = test system: uPA mRNA expression in human umbilical vein endothelial cells (HUVEC); experiment: Taqman gene expression assay, uPA mRNA in HUVEC; type: cell-based; conditions: 5 μM, 0.5 to 24 hours, FIG. 1B
Description: (§2) Human umbilical vein endothelial cells (HUVEC) were cultured in an endothelium-specific, 2% serum-containing, growth factor-supplemented, antibiotic-free culture medium. Cryo-preserved cells from a single, donor in passage 1 or 2 were directly seeded into fibronectin-coated 6 well plates at a seeding density of 5000 cells/cm^2 and cultured without sub-culturing using standard cell culture conditions. 50% of the medium was replaced with fresh medium every 24 h until confluence. Cells were treated with the B1 dimer at a final concentration of μ5 M for 0.5, 2, 4, and 24 hours, respectively, and mRNA was isolated with a Qiagen mRNA Isolations System. cDNA was synthesized from mRNA samples using a HPLC-purified T7 Oligo(dT) primer and SuperScript II reverse transcriptase enzyme (Invitrogen). The ensuing cDNA samples were purified using a Qiagen PCR purification system. The cDNA templates were added to standardized Taqmang® Gene Expression Assays (Applied Biosystems) reactions mixtures and a Real-Time PCR was performed using standardized thermo-cycling conditions. An absolute quantification method of analyzing gene expression levels was used on triplicate reactions of each sample, and amplification plots generated by the Applied Biosystems 7900HT Fast Real-Time PCR System were analyzed using ABI Prism SDS v2.1 software.

[2] = Closure time after ingestion by human volunteers; type: in vivo; conditions: FIG. 4
[3] = test system: tPA mRNA expression in human umbilical vein endothelial cells (HUVEC); experiment: Taqman gene expression assay, tPA mRNA in HUVEC; type: cell-based; conditions: 5 μM, 0.5 to 24 hours, FIG. 1A
Description: as §2

[4] = test system: PAI mRNA expression in human umbilical vein endothelial cells (HUVEC); experiment: Taqman gene expression assay, PAI mRNA in HUVEC; type: cell-based; conditions: 5 μM, 0.5 to 24 hours, FIG. 1C
Description: as §2

tPA release from HUVEC = experiment: tPA release from HUVEC, tPA activity in culture medium (ELISA-based assay); type: cell-based, human
Description: HUVEC cultures were established as detailed above, by seeding HUVEC into fibronectin-coated 6 well plates at a seeding density of 5000 cells/cm^2. Cells were cultured without sub-culturing using standard cell culture conditions. 50% of the medium was replaced with fresh medium every 24 h. […] The remaining medium was collected and the weight was recorded for subsequent activity calculations (for calculation purposes we assumed that 1 g of medium=1 mL). tPA and PAI release was measured as the activity of the respective proteins in the collected media using an ELISA-based assay [Innovative Research Inc., Southfield, Mich., USA] in accordance with the manufacturer's instructions.

[5] = test system: total PAI in HUVEC medium; experiment: Total PAI (free and tPA/uPA-bound) in HUVEC culture medium; type: cell-based, human; conditions: 24 h, 5 μM as compared to 1 μM, FIG. 3
Description: (§3) HUVEC cultures were established as detailed above, by seeding HUVEC into fibronectin-coated 6 well plates at a seeding density of 5000 cells/cm^2. Cells were cultured without sub-culturing using standard cell culture conditions. 50% of the medium was replaced with fresh medium every 24 h. Following an incubation of the HUVECs with the TC at a concentration of 5 μM for 24 h, an aliquote of the media was collected and analyzed for its content of tPA, and PAI, respectively. The remaining medium was collected and the weight was recorded for subsequent activity calculations (for calculation purposes we assumed that 1 g of medium=1 mL). tPA and PAI release was measured as the activity of the respective proteins in the collected media using an ELISA-based assay [Innovative Research Inc., Southfield, Mich., USA] in accordance with the manufacturer's instructions.

PAI release from HUVEC = experiment: PAI activity in HUVEC culture medium (ELISA-based assay); type: cell-based, human; conditions: 24 h, not quite statistically significant (P=0.061, One Way ANOVA)
Description: as §3

SMILES | expression, secreting or activity of various proteins related to cardiovascular function (human endothelial cells) | plasma uPA activity, time-dependent change (plasma uPA) | increase in tPAmax (mean maximal increase in plasma tPA activity) (plasma tPA; n=4) | mean tPAmax (plasma tPA; n=4) | plasma tPA activity, time course (plasma tPA; One Way ANOVA P=0.333) | plasma tPA activity, time course (plasma tPA; One Way ANOVA P=0.333, listed as B1) | plasma PAI activity, time-dependent change (plasma PAI; raw data) | PAI plasma activity, normalized to individual baselines (plasma PAI; statistical significance at 4 h post-ingestion (P=0.011, t-test)) | plasma tPAtotal levels, time-dependent change (plasma tPAtotal) | mRNA expression for uPA [1] | closure time as compared to vehicle (water) [2] | mRNA expression for tPA [3] | expression of PAI mRNA [4] | increases in media-present tPA activity versus vehicle (tPA release from HUVEC; 24 h, 5 μM and 10 μM, One Way ANOVA followed by Tukey Test) | tPA activity in the cell culture medium (tPA release from HUVEC; 24 hours of incubation, different concentrations, FIG. 2) | total PAI (free and tPA/uPA-bound) in medium [5] | activity of PAI in the media (PAI release from HUVEC)
Oc1cc(O)c2c(c1)O[C@H](c1ccc(O)c(O)c1)[C@H](O)C2 [(−)-epicatechin] | modulated | – | – | – | – | – | – | – | – | – | – | – | – | – | – | – | –
Oc1cc(O)c2c(c1)O[C@@]1(c3ccc(O)c(O)c3)Oc3cc(O)c4c(c3[C@@H]2[C@H]1O)O[C@H](c1ccc(O)c(O)c1)[C@H](O)C4 [A2 dimer, epicatechin-(4β→8; 2β→O→7)-epicatechin] | modulated | – | – | – | – | – | – | – | – | – | – | – | – | – | – | – | –
Oc1cc(O)c2c(c1)O[C@H](c1ccc(O)c(O)c1)[C@H](O)[C@H]2c1c(O)cc(O)c2c1O[C@H](c1ccc(O)c(O)c1)[C@@H](O)C2 [B1 dimer, procyanidin dimer B1] | modulated | did not cause a statistically significant, time-dependant change | 46% | 261.4+/−39.4 mU/mL | time-dependent increase | increases plasma tPA activity | did not cause a statistically significant, time-dependant change | time-dependently decreased | neither the ingestion of the B1 dimer nor that of the vehicle caused a time-dependent change | time-dependent increases | augmentation of the closure time | time-dependent increases | decreases | significantly different from vehicle treatments | dose-dependent increase; also recorded: increase in tPA activity | modulate; also recorded: increase in total PAI | dose-dependant decrease
